Measurements taken from the supplement of paper PMC10307832.

Tests used:
Experiment in all cases: relative viability (nuclei count vs DMSO), 5 days (fraction); higher = more cells survive
DM3189 + Crizotinib = compound: C1CN(CCN1)C2=CC=C(C=C2)C3=CN4C(=C(C=N4)C5=CC=NC6=CC=CC=C56)N=C3 [DM3189] + C[C@@H](Oc1cc(-c2cnn(C3CCNCC3)c2)cnc1N)c1c(Cl)ccc(F)c1Cl [Crizotinib] (partner 1 µM)
Procedure, shortened: (§1)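 Relative viability equals treated-well nuclei counts divided by vehicle-well nuclei counts. Counts came from 4× images of lung cancer cell lines grown in 1536-well plates for 5 days after pin-tool dosing on the day after seeding. Dosing used one drug alone or a fixed anchor-drug dose plus five library-drug doses (not always all listed) in √10 steps, and values are medians of duplicate plates.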

DM3189 + Alpelisib = compound: C1CN(CCN1)C2=CC=C(C=C2)C3=CN4C(=C(C=N4)C5=CC=NC6=CC=CC=C56)N=C3 [DM3189] + Cc1nc(NC(=O)N2CCC[C@H]2C(N)=O)sc1-c1ccnc(C(C)(C)C(F)(F)F)c1 [Alpelisib] (partner 2 µM)
Procedure, shortened: as §1

DM3189 + Phenformin = compound: C1CN(CCN1)C2=CC=C(C=C2)C3=CN4C(=C(C=N4)C5=CC=NC6=CC=CC=C56)N=C3 [DM3189] + N=C(N)NC(=N)NCCc1ccccc1 [Phenformin] (partner 250 µM)
Procedure, shortened: as §1

DM3189 + Foretinib = compound: C1CN(CCN1)C2=CC=C(C=C2)C3=CN4C(=C(C=N4)C5=CC=NC6=CC=CC=C56)N=C3 [DM3189] + COc1cc2c(Oc3ccc(NC(=O)C4(C(=O)Nc5ccc(F)cc5)CC4)cc3F)ccnc2cc1OCCCN1CCOCC1 [Foretinib] (partner 0.25 µM)
Procedure, shortened: as §1

DM3189 + OSI-027 = compound: C1CN(CCN1)C2=CC=C(C=C2)C3=CN4C(=C(C=N4)C5=CC=NC6=CC=CC=C56)N=C3 [DM3189] + COc1cccc2cc(-c3nc([C@H]4CC[C@H](C(=O)O)CC4)n4ncnc(N)c34)[nH]c12 [OSI-027] (partner 0.5 µM)
Procedure, shortened: as §1

Cell Line	relative viability (DM3189 + Crizotinib; first compound 0.08 µM)	relative viability (DM3189 + Crizotinib; first compound 0.253 µM)	relative viability (DM3189 + Crizotinib; first compound 0.8 µM)	relative viability (DM3189 + Crizotinib; first compound 2.53 µM)	relative viability (DM3189 + Alpelisib; first compound 0.08 µM)	relative viability (DM3189 + Alpelisib; first compound 0.253 µM)	relative viability (DM3189 + Alpelisib; first compound 0.8 µM)	relative viability (DM3189 + Alpelisib; first compound 2.53 µM)	relative viability (DM3189 + Phenformin; first compound 0.08 µM)	relative viability (DM3189 + Phenformin; first compound 0.253 µM)	relative viability (DM3189 + Phenformin; first compound 0.8 µM)	relative viability (DM3189 + Phenformin; first compound 2.53 µM)	relative viability (DM3189 + Foretinib; first compound 0.08 µM)	relative viability (DM3189 + Foretinib; first compound 0.253 µM)	relative viability (DM3189 + Foretinib; first compound 0.8 µM)	relative viability (DM3189 + Foretinib; first compound 2.53 µM)	relative viability (DM3189 + OSI-027; first compound 0.08 µM)	relative viability (DM3189 + OSI-027; first compound 0.253 µM)	relative viability (DM3189 + OSI-027; first compound 0.8 µM)	relative viability (DM3189 + OSI-027; first compound 2.53 µM)
NCI-H1666	1.07	1.01	0.965	0.8	1.04	1.17	1.07	0.793	0.629	0.545	0.549	0.592	1.02	0.97	1.02	0.93	1.01	0.941	1.1	1.01
NCI-H1734	0.585	0.695	0.676	0.657	0.677	0.706	0.635	0.661	0.344	0.381	0.37	0.332	0.888	0.829	0.756	0.823	0.684	0.572	0.592	0.565
NCI-H1755	0.768	0.837	0.736	0.818	0.848	0.877	0.815	0.926	0.698	0.589	0.511	0.566	0.914	0.855	0.718	0.826	0.732	0.688	0.574	0.786
NCI-H1915	0.879	0.79	0.808	0.783	1.09	0.973	0.898	1.04	0.392	0.361	0.355	0.301	1.09	1.07	0.875	1.03	0.823	0.62	0.543	0.553
NCI-H1944	1.25	1	–	1.22	0.884	0.817	–	0.806	0.237	0.192	–	0.192	0.93	0.81	–	0.88	0.513	0.397	–	0.461
NCI-H1975	1.1	0.928	0.819	0.647	0.869	0.718	0.658	0.342	0.455	0.38	0.4	0.329	1.02	0.871	0.898	0.782	1	0.627	0.666	0.514
NCI-H1993	–	0.846	0.744	0.991	–	0.671	0.641	0.7	0.473	0.481	0.527	0.566	0.766	0.744	0.672	0.907	0.541	0.49	0.476	0.506
NCI-H2009	1.07	1.03	0.933	0.922	1.17	1.16	1.13	1.15	0.526	0.471	0.438	0.445	1.22	1.16	1.14	1.25	0.684	0.577	0.553	0.579
NCI-H2023	0.68	0.729	0.631	0.502	0.586	0.633	0.574	0.63	0.368	0.363	0.428	0.347	0.938	0.867	0.857	0.552	0.428	0.388	0.295	0.398
NCI-H2085	0.941	0.807	0.872	0.752	0.968	0.962	0.976	0.893	0.722	0.72	0.633	0.75	0.982	1.02	0.925	1.01	0.835	0.721	0.722	0.864
NCI-H2087	0.894	0.695	0.788	0.79	1.31	1.07	1.01	1.03	0.457	0.495	0.437	0.418	1.28	1.18	1.07	0.969	0.718	0.462	0.449	0.601
NCI-H2126	1.07	0.989	0.98	1.06	0.838	0.745	0.763	0.805	0.576	0.529	0.483	0.522	1.14	1.11	1.18	1.16	0.79	0.704	0.67	0.645
NCI-H2170	1.31	1.27	1.24	1.09	0.96	0.854	0.734	0.641	0.435	0.367	0.361	0.397	0.985	1.01	0.883	1.16	0.863	0.76	0.768	0.686
NCI-H2228	0.695	0.363	0.385	0.14	0.683	0.79	0.513	0.211	0.368	0.344	0.29	0.189	0.802	0.828	0.7	0.517	0.73	0.517	0.434	0.322
NCI-H2347	0.692	0.761	0.67	0.675	0.969	1	0.989	1.14	0.399	0.45	0.53	0.434	1.24	1.29	0.957	0.843	0.486	0.337	0.455	0.335
NCI-H2405	0.867	0.855	0.775	0.855	0.527	0.709	0.58	0.677	0.384	0.351	0.416	0.411	1.04	1.06	1.02	1.05	0.584	0.608	0.636	0.724
